pIC50: −log10 of the molar value.

The term pIC50 denotes −log10 of the IC50, conventionally taken in molar units. By IC50 is commonly meant the point on the concentration scale where inhibition reaches its midpoint.

For one assay, the system named is SJSA-1. In words: Protocol B: SJSA-1 CellTiter-Glo cell viability. The following applies: Homo sapiens, SJSA-1, 72 h, read-out: SJSA1 IC50 (Protocol B), SJSA-1 cells, CellTiter-Glo, 72 hrs.
Experimental: Protocol B: SJSA-1 and SN40R2 Assays
The CellTiter-Glo® Luminescent Cell Viability Assay is a homogeneous method to determine the number of viable cells in culture based on quantitation of the ATP present, which signals the presence of metabolically active cells. […] 100 μl of CTG reagent (Promega #G7573) was added to all wells and luminescence was measured on the topcount. The EC50 values were determined from a sigmoidal 4 parameter curve fit using XLfit in conjunction with Activity Base (IDBS; Guildford, Surrey, UK).
In the case of `CN1CCN(CC(C)(O)c2cc(F)c3c(c2)C(=O)N(Cc2ccc(C#N)cn2)[C@@]3(OCC2(C#N)CC2)c2ccc(Cl)cc2)CC1` (stereo partly drawn) [Example 279, 6-{[(1R)-1-(4-chlorophenyl)-1-[(1-cyanocyclopropyl)methoxy]-7-fluoro-5-[2-hydroxy-1-(4-methylpiperazin-1-yl)propan-2-yl]-3-oxo-2,3-dihydro-1H-isoindol-2-yl]methyl}pyridine-3-carbonitrile], the pIC50 is 6.24.

In the case of `Cn1cc(C(C)(O)c2cc(F)c3c(c2)C(=O)N(Cc2ncc(Cl)cn2)[C@@]3(OCC2(CO)CC2)c2ccc(Cl)cc2)cn1` (stereo partly drawn) [Example 349, (3R)-3-(4-chlorophenyl)-2-[(5-chloropyrimidin-2-yl)methyl]-4-fluoro-6-[1-hydroxy-1-(1-methyl-1H-pyrazol-4-yl)ethyl]-3-{[1-(hydroxymethyl)cyclopropyl]methoxy}-2,3-dihydro-1H-isoindol-1-one], the pIC50 was 7.55.

Take `Cn1cc(C(C)(O)c2cc(F)c3c(c2)C(=O)N(Cc2ccc(C#N)cn2)[C@@]3(O[C@H]2C[C@@H](O)C2)c2ccc(Cl)cc2)cn1` (stereo partly drawn) [Example 355, 6-{[1-(4-chlorophenyl)-7-fluoro-5-[1-hydroxy-1-(1-methyl-1H-pyrazol-4-yl)ethyl]-3-oxo-1-[cis-3-hydroxycyclobutoxy]-2,3-dihydro-1H-isoindol-2-yl]methyl}pyridine-3-carbonitrile]: the pIC50 was 5.33.

With `CC(O)(c1cc(F)c2c(c1)C(=O)N(Cc1ccc(Cl)cn1)[C@@]2(OCC1(O)CC1)c1ccc(Cl)cc1)c1ncccn1` (stereo partly drawn) [Example 396, (3R)-3-(4-chlorophenyl)-2-[(5-chloropyridin-2-yl)methyl]-4-fluoro-6-[1-hydroxy-1-(pyrimidin-2-yl)ethyl]-3-[(1-hydroxycyclopropyl)methoxy]-2,3-dihydro-1H-isoindol-1-one], the pIC50 was 6.55.

The assay is the same for the next values; noted with them: Homo sapiens, SJSA-1, 72 h, read-out: SJSA1 IC50 (μM) (Protocol B), SJSA-1, Protocol B (CellTiter-Glo), 72 hrs.
As to `CCC(O)(c1cc(F)c2c(c1)C(=O)N(Cc1ccc(C#N)cn1)[C@@]2(OCC1(CO)CC1)c1ccc(Cl)cc1)c1cn(C)cn1` (stereo partly drawn) [Example 337, 6-{[(1R)-1-(4-chlorophenyl)-7-fluoro-5-[1-hydroxy-1-(1-methyl-1H-imidazol-4-yl)propyl]-1-{[1-(hydroxymethyl)cyclopropyl]methoxy}-3-oxo-2,3-dihydro-1H-isoindol-2-yl]methyl}pyridine-3-carbonitrile], the IC50 was 0.058 µM.

`Cn1cc(C(O)(c2cc(F)c3c(c2)C(=O)N(Cc2ccc(C#N)cn2)[C@@]3(O[C@H]2CCOC2)c2ccc(Cl)cc2)C(F)(F)F)cn1` (stereo partly drawn) [Example 371, 6-{[(1R)-1-(4-chlorophenyl)-7-fluoro-3-oxo-1-[(3S)-oxolan-3-yloxy]-5-[2,2,2-trifluoro-1-hydroxy-1-(1-methyl-1H-pyrazol-4-yl)ethyl]-2,3-dihydro-1H-isoindol-2-yl]methyl}pyridine-3-carbonitrile]: the IC50 came out at 2.3 µM.

The same assay, now with this note: read-out: SJSA1 IC50 (Protocol B); SJSA-1 cells, CellTiter-Glo, 72 hrs.
Consider `Cc1nnc(C(C)(O)c2cc(F)c3c(c2)C(=O)N(Cc2ccc(Cl)cn2)[C@@]3(OCC2(O)CC2)c2ccc(Cl)cc2)o1` (stereo partly drawn) [Example 186, (3R)-3-(4-Chlorophenyl)-2-[(5-chloropyridin-2-yl)methyl]-4-fluoro-6-[1-hydroxy-1-(5-methyl-1,3,4-oxadiazol-2-yl)ethyl]-3-[(1-hydroxycyclopropyl)methoxy]-2,3-dihydro-1H-isoindol-1-one], for which the pIC50 is 6.38.

For `CO[C@]1(c2ccc(Cl)cc2)c2c(F)cc(C(C)(O)c3ccn(C)n3)cc2C(=O)N1Cc1ccc(Cl)cn1` (stereo partly drawn) [Example 189, (3R)-3-(4-Chlorophenyl)-2-[(5-chloropyridin-2-yl)methyl]-4-fluoro-6-[1-hydroxy-1-(1-methyl-1H-pyrazol-3-yl)ethyl]-3-methoxy-2,3-dihydro-1H-isoindol-1-one], the pIC50 is 6.00.

As to `CO[C@]1(c2ccc(Cl)cc2)c2c(F)cc(C(C)(O)c3ccn(C)n3)cc2C(=O)N1Cc1ccc(Cl)cn1` (stereo partly drawn) [Example 190, (3R)-3-(4-Chlorophenyl)-2-[(5-chloropyridin-2-yl)methyl]-4-fluoro-6-[1-hydroxy-1-(1-methyl-1H-pyrazol-3-yl)ethyl]-3-methoxy-2,3-dihydro-1H-isoindol-1-one], the pIC50 was 5.30.
